Assay results reported in US20240208961A1, “EIF4E INHIBITORS AND USES THEREOF” (PIC Therapeutics, Inc., priority 2022, published 2024).
Where two headings read alike, the source gives them in different places.

Experiment: Pharmacokinetic study of I-11 in female BALB/c mice (Example 4)
Assay type: in vivo, Balb/c mouse
Conditions: mouse, plasma; for concentration at 0.25 hr / concentration at 0.5 hr / concentration at 1 hr / concentration at 2 hr / concentration at 4 hr / concentration at 8 hr / concentration at 24 hr / concentration at 0.083 hr: female, BALB/c, po
Description: Pharmacokinetic Study in Female BALB/c Mice: Balb/c mouse, 17-19 g, 8-10 weeks, female, N=27, purchased from JH Laboratory Animal Co. LTD
Fasted overnight and fed at 4 hr post dosing.
Animals dosed with sampling at 0.083, 0.25, 0.5, 1, 2, 4, 8, 24 hr post dose. 8 time points. Semi-serial bleeding for plasma only. The animals were restrained manually at the designated time points. Approx. 110 μL of blood/time point was taken from the animals via facial vein into tubes with K2EDTA. Blood sample was centrifuged at 4° C. (2000 g, 5 min) to obtain plasma within 15 m after sample collection. Put on wet ice, then plasma samples were stored at approximately −70° C. until analysis.
For oral gavage, compound was dosed as a suspension in […] carboxymethyl cellulose (CMC), 0.2% Tween 80 in water. Compound was orally dosed at 50 mg/Kg, at 100 mg/Kg.
For IV dosing, compound was dissolved into a solution of […], […] HS 15 and 90% Saline. Compound was IV dosed at 5 mg/Kg.
Plasma samples were analyzed for I-11 using LC-MS using a calibration curve of known concentrations.
FIG. 1 describes the mean plasma concentration-time profiles of I-11 after single IV dose of 5 mg/kg, PO dose of 50 mg/kg and 100 mg/kg in female Balb/c mice (N=3/time point). • Note: • 1. […] The IV dosing solutions were prepared in 5% DMSO+5% Solutol HS15+90% Saline. The PO dosing solutions were prepared in 1% CMC-Na+0.2% Tween 80 in water. • 3. BQL=Below quantifiable limit of 3.00 ng/mL for I-11 in female Balb/c mouse plasma samples. • 4. PK parameters were estimated by non-compartmental model using WinNonlin 8.2. If the adjusted rsq (linear regression coefficient of the concentration value on the terminal phase) is less than 0.9, T1/2 might not be accurately estimated. • 5. F value was determined by the following equation: • If AUClast/AUCINF>80%:
F=(AUCINF-EX×DOSEIV)/(AUCINF-IV×DOSEEX)[…] • If AUClast/AUCINF<80% or AUCINF not available:
F=([…])/(AUClast-IV×DOSEEX)[…] • 6. NA: Not available.

[1] = 50 mg/kg, PO 50 mg/kg, read-out: Plasma concentration Mean
[2] = 50 mg/kg, PO 50 mg/kg, read-out: Plasma concentration Individual
[3] = 100 mg/kg, PO 100 mg/kg, read-out: Plasma concentration Individual
[4] = 100 mg/kg, PO 100 mg/kg, read-out: Plasma concentration Mean

- concentration at 0.25 hr [1]: 1760 ng/mL
- concentration at 0.5 hr [2]: 3830 ng/mL
- concentration at 0.5 hr [1]: 5850 ng/mL
- concentration at 1 hr [2]: 8760 ng/mL
- concentration at 1 hr [1]: 7120 ng/mL
- concentration at 2 hr [2]: 7260 ng/mL
- concentration at 2 hr [1]: 6310 ng/mL
- concentration at 4 hr [2]: 1170 ng/mL
- concentration at 4 hr [1]: 1730 ng/mL
- concentration at 8 hr [2]: 367 ng/mL
- concentration at 8 hr [1]: 314 ng/mL
- concentration at 24 hr (50 mg/kg, PO 50 mg/kg): 83.3 ng/mL
- concentration at 0.083 hr [3]: 188 ng/mL
- concentration at 0.083 hr [4]: 246 ng/mL
- concentration at 0.25 hr [3]: 2690 ng/mL
- concentration at 0.25 hr [4]: 2790 ng/mL
- concentration at 0.5 hr [4]: 7820 ng/mL
- concentration at 1 hr [3]: 8840 ng/mL
- concentration at 1 hr [4]: 7530 ng/mL
- concentration at 2 hr [3]: 18600 ng/mL
- concentration at 2 hr [4]: 15000 ng/mL
- concentration at 4 hr [4]: 8190 ng/mL
- concentration at 8 hr [4]: 633 ng/mL
- concentration at 24 hr (100 mg/kg, PO 100 mg/kg): 60.8 ng/mL
- AUC(0-inf) (IV 5 mg/kg): 5280 ng·h/mL
- AUC(0-t) (IV 5 mg/kg): 5220 ng·h/mL
- C0 (IV 5 mg/kg): 13600 ng/mL
- MRT inf (IV 5 mg/kg): 0.73 h
- MRT last (IV 5 mg/kg): 0.594 h
- half-life (IV 5 mg/kg): 2.28 h
- Vd (IV 5 mg/kg, read-out: Vss): 0.69 L/kg
- AUC(0-inf) (PO 50 mg/kg): 26900 ng·h/mL
- AUC(0-t) (PO 50 mg/kg): 26400 ng·h/mL
- Cmax (PO 50 mg/kg): 7120 ng/mL
- MRT inf (PO 50 mg/kg): 3.79 h
- MRT last (PO 50 mg/kg): 3.31 h
- Tmax (PO 50 mg/kg): 1 h
- half-life (PO 50 mg/kg): 4.05 h
- AUC(0-inf) (PO 100 mg/kg): 63400 ng·h/mL
- AUC(0-t) (PO 100 mg/kg): 63100 ng·h/mL
- Cmax (PO 100 mg/kg): 15000 ng/mL
- MRT inf (PO 100 mg/kg): 3.49 h
- MRT last (PO 100 mg/kg): 3.37 h
- Tmax (PO 100 mg/kg): 2 h
- half-life (PO 100 mg/kg): 3.19 h
SMILES: CC(C)Cc1sc(Nc2ncc(-c3cccs3)cc2C(=O)O)nc1C(C)(C)C [Compound I-11]
